According to US7569570B2, “Thienopyrimidines, process for preparing the same and use thereof” (Takeda Pharmaceutical Company Limited, priority 2002, dated 2009):

| SMILES | melting point |
| --- | --- |
| CCNC(=O)Nc1ccc(-c2sc3c(c2CN(C)C2CCCCC2)c(=O)n(-c2ccccc2)c(=O)n3Cc2c(F)cccc2F)cc1 [Example 91, N-{4-[5-{[cyclohexyl(methyl)amino]methyl}-1-(2,6-difluorobenzyl)-2,4-dioxo-3-phenyl-1,2,3,4-tetrahydrothieno[2,3-d]pyrimidin-6-yl]phenyl}-N′-ethylurea] | 210 to 212 °C |
| CCNC(=O)Nc1ccc(-c2sc3c(c2CN(C)CCOC)c(=O)n(-c2ccc(OCc4ccccc4)cc2)c(=O)n3Cc2c(F)cccc2F)cc1 [Example 102] | 223 to 225 °C |
| CCNC(=O)Nc1ccc(-c2sc3c(c2CN(C)CCN(C)S(C)(=O)=O)c(=O)n(-c2ccc(OCCOC)cc2)c(=O)n3Cc2c(F)cccc2F)cc1 [Example 38, N-{2-[({1-2,6-(difluorobenzyl)-6-(4-{[(ethylamino)carbonyl]amino}phenyl)-3-[4-(2-methoxyethoxy)phenyl]-2,4-dioxo-1,2,3,4-tetrahydrothieno[2,3-d]pyrimidin-5-yl)methyl)(methyl)amino)ethyl)-N-methylsulfonamide] | 197 to 199 °C |
| CCNC(=O)Nc1ccc(-c2sc3c(c2CN(C)CCC(=O)N(C)C)c(=O)n(-c2ccc(OCCOC)cc2)c(=O)n3Cc2c(F)cccc2F)cc1 [Example 100, 3-[({1-2,6-(difluorobenzyl)-6-(4-{[(ethylamino)carbonyl]amino}phenyl)-3-[4-(2-methoxyethoxy)phenyl]-2,4-dioxo-1,2,3,4-tetrahydrothieno[2,3-d]pyrimidin-5-yl)methyl)(methyl)amino)-N,N-dimethylpropanamide] | 215 to 218 °C |

Results, then the compound that gave them:

| melting point | SMILES |
| --- | --- |
| 198 to 200 °C | CCNC(=O)Nc1ccc(-c2sc3c(c2CN(C)CCC(=O)OCC)c(=O)n(-c2ccccc2)c(=O)n3Cc2c(F)cccc2F)cc1 [Example 4, ethyl 3-[{[1-(2,6-difluorobenzyl)-6-(4-{[(ethylamino)carbonyl]amino}phenyl)-2,4-dioxo-3-phenyl-1,2,3,4-tetrahydrothieno[2,3-d]pyrimidin-5-yl]methyl}(methyl)amino]propanate] |
| 221 to 223 °C | CCNC(=O)Nc1ccc(-c2sc3c(c2CNCCOC)c(=O)n(-c2ccccc2)c(=O)n3Cc2c(F)cccc2F)cc1 [Example 2, N-[4-(1-(2,6-difluorobenzyl)-5-{[(2-methoxyethyl)amino]methyl}-2,4-dioxo-3-phenyl-1,2,3,4-tetrahydrothieno[2,3-d]pyrimidin-6-yl)phenyl]-N′-ethylurea] |
| 151 to 153 °C | CCNC(=O)Nc1ccc(-c2sc3c(c2CN(C)CCN(C)Cc2ccccc2)c(=O)n(-c2ccccc2)c(=O)n3Cc2c(F)cccc2F)cc1 [Example 25, N-{4-[5-{[{2-[benzyl(methyl)amino]ethyl}(methyl)amino]methyl}-1-(2,6-difluorobenzyl)-2,4-dioxo-3-phenyl-1,2,3,4-tetrahydrothieno[2,3-d]pyrimidin-6-yl]phenyl}-N′-ethylurea] |
| 189 to 191 °C | CCNC(=O)Nc1ccc(-c2sc3c(c2CN(C)C[C@@H]2CCCN2S(C)(=O)=O)c(=O)n(-c2ccccc2)c(=O)n3Cc2c(F)cccc2F)cc1 [Example 84] |
| 203 to 204 °C | CCNC(=O)Nc1ccc(-c2sc3c(c2CN(C)CCCC(=O)OCC)c(=O)n(-c2ccccc2)c(=O)n3Cc2c(F)cccc2F)cc1 [Example 6, ethyl 4-[{[1-(2,6-difluorobenzyl)-6-(4-{[(ethylamino)carbonyl]amino}phenyl)-2,4-dioxo-3-phenyl-1,2,3,4-tetrahydrothieno[2,3-d]pyrimidin-5-yl]methyl}(methyl)amino]butanate] |
| 218 to 220 °C | CCNC(=O)Nc1ccc(-c2sc3c(c2CN(C)CCOC)c(=O)n(-c2ccc(NC(C)=O)cc2)c(=O)n3Cc2c(F)cccc2F)cc1 [Example 98, N-[4-(3-(4-acetoaminophenyl)-1-(2,6-difluorobenzyl)-5-{[2-methoxyethyl(methyl)amino]methyl}-2,4-dioxo-1,2,3,4-tetrahydrothieno[2,3-d]pyrimidin-6-yl)phenyl]-N′-ethylurea] |
